Data: PubChem BioAssay (NCI)
Several values for one entry are separate records, joined by “and”; a condition that tells them apart may be missing. Equal values may be shown once.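 Test compounds were applied to cells in 96-well plates for 48 hours at 5 doses. GI50 = concentration required for 50% inhibition of growth. TGI is the concentration that stops growth completely.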 Where a SMILES comes first, the peptide text is derived from it. [ ]: non-standard residue; d: D form. Orn = NCCC[CH](N)C(=O)O

Legend:
Assay in all cases: DTP human tumour cell line panel, 48 h
[1] = system: HS 578T breast
[2] = system: SR leukemia
[3] = system: U251 CNS
[4] = system: SNB-75 CNS
[5] = system: HCT-15 colon
[6] = system: HOP-62 NSCLC
[7] = system: RXF 393 renal
[8] = system: UACC-62 melanoma
[9] = system: M14 melanoma
[10] = system: SF-268 CNS

SMILES | GI50 [1] | TGI [1] | GI50 [2] | TGI [2] | GI50 [3] [nM] | TGI [3] | GI50 [4] [nM] | TGI [4] | GI50 [5] | TGI [5] | GI50 [6] [nM] | TGI [6] | GI50 [7] | TGI [7] | GI50 [8] | TGI [8] | GI50 [9] [nM] | TGI [9] | GI50 [10] | TGI [10]
O=CNc1ccc2c(c1)Cc1cc([N+](=O)[O-])ccc1-2 | 1230 nM | 5160 nM | 2170 nM | > 100000 nM | 2970 | > 100000 nM | 3020 | > 59500 nM | 2860 nM | > 100000 nM | 8710 | > 100000 nM | 2330 nM | > 100000 nM | 4300 nM | > 100000 nM | 291 | > 100000 nM | 5020 nM | > 100000 nM
CCNCCNc1cc(C2CCCC2)c(C#N)c2nc3ccccc3n12 | 3230 nM | 10400 nM | 1660 nM | 6130 nM | 2210 | 4270 nM | 1630 | 4020 nM | 3070 nM | 12900 nM | 3720 | 14900 nM | 1810 nM | 4000 nM | 1920 nM | 3760 nM | 2060 | 4080 nM | 3280 nM | 14000 nM
CC(C)CC1NC(=O)C(CCCN)NC(=O)C(C(C)C)NC(=O)C2CCCN2C(=O)C(Cc2ccccc2)NC(=O)C(CC(C)C)NC(=O)C(CCCN)NC(=O)C(C(C)C)NC(=O)C2CCCN2C(=O)C(Cc2ccccc2)NC1=O (stereo not given) (cyclo(FPV[Orn]LFPV[Orn]L); configuration not given here) | 16.6 nM and 45.3 nM | 784 nM and 1640 nM | 14.8 nM and 36 nM | 258 nM and 960 nM | < 3.25 | 140 nM and 117 nM | 10.3 | 149 nM and 63.7 nM | 213 nM and 436 nM | 4060 nM and 4700 nM | 5.95 | 418 nM and 1310 nM | 35.2 nM and 51.5 nM | 720 nM and 1440 nM | < 12.3 nM and 31.5 nM | 443 nM and 1260 nM | 10.1 | 609 nM and 1520 nM | 16.8 nM and 59.4 nM | 565 nM and 1660 nM
COc1ccc(-c2oncc2-c2cc(OC)c3c(c2)OCO3)cc1 | 2490 nM | 21200 nM | 1130 nM | 39600 nM | 3800 | > 87300 nM | 1430 | 5120 nM | 1200 nM | > 100000 nM | 3910 | > 71100 nM | 2900 nM | 20300 nM | 2850 nM | 57700 nM | 2330 | > 69600 nM | 7380 nM | > 100000 nM
CNC(=S)N/N=C(/C)CCC/C(C)=N/NC(=S)NC |  | > 100000 nM |  | > 100000 nM |  | > 100000 nM |  | > 100000 nM |  | > 100000 nM |  | > 100000 nM |  | > 50300 nM |  | > 100000 nM |  | > 100000 nM |  | > 88700 nM
O=C(Nc1cccc2ccccc12)c1cc2ccccc2cc1O | 1740 nM | 6430 nM | 2570 nM | 9730 nM | 1560 | 4720 nM | 1600 | 6110 nM | 3030 nM | 11600 nM | 3250 | 18100 nM | 2710 nM | 6680 nM | 1490 nM | 10700 nM | 3140 | 20400 nM | 3470 nM | 39100 nM
Cc1cccc2c(=O)c3c(sc12)c(NCCN)nc1ccccc13 | 1500 nM | 4780 nM | 719 nM | 1850 nM | 840 | 1590 nM | 448 | 2790 nM | 821 nM | 1580 nM | 728 | 1650 nM | 1030 nM | 2750 nM | 811 nM | 1650 nM | 808 | 1550 nM | 1180 nM | 3880 nM
COc1ccc2c(c1)N(CCC1CCCCN1C)c1ccccc1S2 (stereo not given) |  | 26500 nM |  | 20900 nM |  | 23800 nM |  | 24600 nM |  | 27400 nM |  | 31200 nM |  | 21800 nM |  | 25200 nM |  | 10900 nM |  | 26600 nM
CCOC(=O)C1=C(N)Oc2cc(OC)ccc2C1c1ccc(F)c(F)c1 (stereo not given) | 2480 nM | 21300 nM | 533 nM | 16700 nM | 1840 | 14300 nM | 1640 | 11100 nM | 503 nM | 14300 nM | 2130 | 19400 nM | 1550 nM | 8760 nM | 558 nM | 15400 nM | 483 | 13500 nM | 8560 nM | 23500 nM
